Results published in patent EP3298022B1, “NOVEL ANNELATED PHENOXYACETAMIDES” (Boehringer Ingelheim International GmbH, priority 2015, dated 2017).
pIC50: −log10 of the molar value.

What was measured:
ENaC = molecular target: T1, ENaC (Mus musculus, UniProt Q61180+Q9WU38+Q9WU39); test: Ussing Chamber assay (short circuit current, amiloride sensitive I_SC); format: cell-based; conditions: Mouse kidney M-1 cells, apical administration, 37°C
T1 construct: Mouse kidney M-1 cells were cultivated in DMEM containing 5% FCS and 5µM dexamethasone; endogenous in cells; host or cells: Mouse kidney M-1 cells (cortical collecting duct line), dexamethasone-treated, on transwell filters
T1 sequence (Q61180 1-699): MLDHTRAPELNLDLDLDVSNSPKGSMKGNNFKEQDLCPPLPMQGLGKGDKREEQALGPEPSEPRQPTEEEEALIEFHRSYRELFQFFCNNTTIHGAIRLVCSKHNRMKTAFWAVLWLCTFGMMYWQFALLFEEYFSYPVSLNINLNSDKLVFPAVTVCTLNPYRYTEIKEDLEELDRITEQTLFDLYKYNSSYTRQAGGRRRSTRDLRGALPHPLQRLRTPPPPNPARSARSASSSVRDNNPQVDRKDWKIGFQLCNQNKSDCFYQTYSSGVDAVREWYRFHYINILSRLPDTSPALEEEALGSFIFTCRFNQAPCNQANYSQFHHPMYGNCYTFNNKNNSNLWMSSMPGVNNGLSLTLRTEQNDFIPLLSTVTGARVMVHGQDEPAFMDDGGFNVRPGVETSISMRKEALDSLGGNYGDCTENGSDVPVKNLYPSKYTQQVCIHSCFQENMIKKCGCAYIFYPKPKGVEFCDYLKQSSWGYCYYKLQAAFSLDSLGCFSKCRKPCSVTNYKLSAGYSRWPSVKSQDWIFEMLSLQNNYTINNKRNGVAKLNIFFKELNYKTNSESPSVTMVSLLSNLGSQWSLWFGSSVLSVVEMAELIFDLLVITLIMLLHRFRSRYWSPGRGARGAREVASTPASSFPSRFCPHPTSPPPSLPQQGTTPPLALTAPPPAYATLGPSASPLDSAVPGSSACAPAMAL
T1 sequence (Q9WU38 1-638): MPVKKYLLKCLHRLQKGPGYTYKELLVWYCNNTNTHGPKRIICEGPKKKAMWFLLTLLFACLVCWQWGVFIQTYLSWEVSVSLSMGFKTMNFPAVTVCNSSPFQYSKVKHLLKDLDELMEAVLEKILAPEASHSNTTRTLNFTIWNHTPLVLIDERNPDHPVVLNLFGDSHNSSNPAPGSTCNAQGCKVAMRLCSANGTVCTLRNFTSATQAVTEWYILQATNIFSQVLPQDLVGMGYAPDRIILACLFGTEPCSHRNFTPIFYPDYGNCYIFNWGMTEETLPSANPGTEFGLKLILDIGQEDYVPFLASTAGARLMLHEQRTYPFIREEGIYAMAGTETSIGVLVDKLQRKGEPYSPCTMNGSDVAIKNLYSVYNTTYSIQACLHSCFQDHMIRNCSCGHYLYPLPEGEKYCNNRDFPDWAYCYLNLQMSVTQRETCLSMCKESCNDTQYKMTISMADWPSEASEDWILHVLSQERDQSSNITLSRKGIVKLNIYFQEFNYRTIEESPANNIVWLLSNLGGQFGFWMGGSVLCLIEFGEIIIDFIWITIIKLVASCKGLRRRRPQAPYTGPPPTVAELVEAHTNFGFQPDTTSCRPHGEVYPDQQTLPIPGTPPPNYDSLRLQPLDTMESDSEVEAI
T1 sequence (Q9WU39 1-655): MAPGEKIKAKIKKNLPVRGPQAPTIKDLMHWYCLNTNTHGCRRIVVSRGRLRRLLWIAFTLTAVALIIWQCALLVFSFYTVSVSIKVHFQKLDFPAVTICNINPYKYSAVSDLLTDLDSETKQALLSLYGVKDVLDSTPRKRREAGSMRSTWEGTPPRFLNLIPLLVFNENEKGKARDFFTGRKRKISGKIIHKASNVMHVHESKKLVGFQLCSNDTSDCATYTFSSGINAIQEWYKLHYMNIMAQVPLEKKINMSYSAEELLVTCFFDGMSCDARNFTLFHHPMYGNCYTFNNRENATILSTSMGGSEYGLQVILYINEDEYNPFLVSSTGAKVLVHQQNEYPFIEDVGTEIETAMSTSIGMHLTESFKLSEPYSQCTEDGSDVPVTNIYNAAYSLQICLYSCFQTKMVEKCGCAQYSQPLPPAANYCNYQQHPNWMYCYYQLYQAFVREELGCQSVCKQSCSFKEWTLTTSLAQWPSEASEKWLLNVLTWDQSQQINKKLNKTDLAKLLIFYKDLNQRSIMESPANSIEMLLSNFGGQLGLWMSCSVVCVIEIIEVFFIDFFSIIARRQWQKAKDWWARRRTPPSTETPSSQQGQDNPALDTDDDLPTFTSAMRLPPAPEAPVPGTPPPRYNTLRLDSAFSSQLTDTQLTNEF
Description: The IC50 values of the example compounds given above were determined in the Ussing Chamber assay.
Ussing Chamber: Mouse kidney M-1 cells were cultivated in DMEM containing 5% FCS and 5µM dexamethasone for 10 to 12 days on polyester transwell filters. Filters were inserted into a teflon-coated well-plate which fit into the ussing chamber system. Prior to measurement the medium of M-1 cells was replaced with Caco-2 transport buffer (Invitrogen, Germany). During measurements, the Ussing chamber temperature was kept at 37°C. Short circuit currents (I_sc) were measured in the voltage-clamp mode with the software package Lab View for data acquisition and analysis. The transepithelial electrical resistance (TEER) was determined by the application of voltage steps of ±5mV every 5 sec. Compounds were administered at a final concentration of 3µM or at increasing concentrations (1-3-10µM) to the apical solution. At the end of each experiment the amiloride sensitive I_SC was measured by adding 3µM amiloride to the apical compartment. Results are expressed as inhibition in percent of the amiloride effect or as IC50.

in vitro = in vitro ADME; conditions: human, pH 7.4, 37°C, 10 µM compound; for Papp A→B: apical-to-basal; for Papp B→A: basal-to-apical
Description: Permeability measurements across polarized, confluent CALU-3 cell monolayers grown on permeable filter supports are used to provide information on the potential of a compound to pass the lung epithelium. Apparent permeability coefficients (Papp) of the compounds across the CALU-3 cell monolayers are measured (pH 7.4, 37°C) in apical-to-basal (AB) and basal-to-apical (BA) transport direction.
CALU-3 cells (1-2 x 10^5 cells/1 cm^2 area) are seeded on filter inserts (Costar transwell polycarbonate filters, 0.4 µm pore size) and cultured (for 10 - 12 days DMEM) until tight monolayers are formed. Compounds of interest are dissolved in appropriate solvent (DMSO, 10 mM stock solution). Stock solutions are diluted with HTP-4 buffer (128.13 mM NaCl, 5.36 mM KCl, 1 mM MgSO4, 1.8 mM CaCl2, 4.17 mM NaHCO3, 1.19 mM Na2HPO4 x 7H2O, 0.41 mM NaH2PO4xH2O, 15 mM HEPES, 20 mM glucose, 0.25 % BSA, pH 7.4) to prepare the transport solutions (10 µM compound, final DMSO <= 0.5 %). The transport solution (TL) is applied to the apical or basolateral donor side for measuring A-B or B-A permeability (3 filter replicates), respectively. The receiver side contains the same buffer as the donor side. After 30 min of accommodation, samples are collected at the start t0 = 0 min and at the end of the experiment tn = 90 min from the donor and at 0, 30, 60, and 90 min also from the receiver chamber. Volume removed is replenished by HTP-4 buffer. The compound concentration in the samples is measured by HPLC-MS/MS or scintillation counting. The permeability coefficient (Papp) and efflux ratio are calculated according to: Papp [cm/s] = (concentration receiver [nM] * volume receiver [mL]/time interval [sec])*(1/filter area)*(1/donor concentration [nM]).

Row | SMILES | pIC50 (ENaC) | Papp A→B (in vitro) [×10⁻⁶ cm/s] | Papp B→A (in vitro) [×10⁻⁶ cm/s]
1 | CCOCCN1CCC(NC(=O)COc2ccc3c(c2)n(CC)c(CNC(=O)c2nc(Cl)cnc2N)[n+]3CC)CC1 [Example 2.07] | 8.52 |  | 
2 | CC[n+]1c(CNC(=O)c2nc(Cl)cnc2N)n(CC2CCCO2)c2cc(OCC(=O)N3CC[S+]([O-])CC3)ccc21 (stereo not drawn) [Example 1.01] |  | 0.8 | 0.3
3 | CCn1c(CNC(=O)c2nc(Cl)cnc2N)[n+](CC)c2ccc(OCC(=O)NCCCN)cc21 [Example 2.01] | 9.00 | 0.2 | 0.5
